{"source": "patent US8916550B2", "about": "“Compounds for modulating TRPV3 function” (Hydra Biosciences, Inc., priority 2005, dated 2014)", "key": {"[1]": {"target": "T1, rat TRPV6 (rTRPV6) (Rattus norvegicus, UniProt Q9R186)", "T1 construct": "expressed in transfected cells", "T1 sequence (Q9R186 1-767)": "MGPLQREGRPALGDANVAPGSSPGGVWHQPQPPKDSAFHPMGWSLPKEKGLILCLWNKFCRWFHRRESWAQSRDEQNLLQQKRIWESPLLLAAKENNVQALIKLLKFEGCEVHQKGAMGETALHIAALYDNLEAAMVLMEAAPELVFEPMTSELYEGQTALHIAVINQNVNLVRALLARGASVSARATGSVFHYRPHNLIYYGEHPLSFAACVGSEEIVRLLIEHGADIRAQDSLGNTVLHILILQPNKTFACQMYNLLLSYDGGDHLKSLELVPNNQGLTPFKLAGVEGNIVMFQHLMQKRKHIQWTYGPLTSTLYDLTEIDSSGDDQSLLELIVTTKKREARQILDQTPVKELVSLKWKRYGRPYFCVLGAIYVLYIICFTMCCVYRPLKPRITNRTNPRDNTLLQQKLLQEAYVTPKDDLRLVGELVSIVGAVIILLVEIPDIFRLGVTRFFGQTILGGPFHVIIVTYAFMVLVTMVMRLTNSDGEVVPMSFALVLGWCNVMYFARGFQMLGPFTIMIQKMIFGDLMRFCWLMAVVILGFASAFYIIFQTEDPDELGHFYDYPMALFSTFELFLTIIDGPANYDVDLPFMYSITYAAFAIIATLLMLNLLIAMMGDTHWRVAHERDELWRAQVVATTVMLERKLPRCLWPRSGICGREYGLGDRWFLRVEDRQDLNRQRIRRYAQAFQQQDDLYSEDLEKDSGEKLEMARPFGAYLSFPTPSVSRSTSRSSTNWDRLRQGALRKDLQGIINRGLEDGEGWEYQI", "experiment": "Selectivity patch clamp, TRPV6 channel", "format": "cell-based", "settings": "fold selective for TRPV3 over TRPV6; tested up to 30 μM, IC50 estimated", "source_text": "(§1) Data is presented as fold selective."}, "[2]": {"test_system": "rats, CFA injected hindpaw", "experiment": "Complete Freund's Adjuvant (CFA) model of inflammatory pain, latency to withdrawal", "format": "in vivo, rat", "settings": "for Effect relative to diclofenac / TRPV1 inhibitor: highest dose tested, 200 mg/kg; for Thermal hyperalgesia (latency to withdrawal): intraperitoneal, tested 45 minutes later", "procedure": "As outlined above, the Complete Freund's Adjuvant (CFA) model is a model of inflammatory pain. As such, it may be used to evaluate effectiveness in relieving pain caused by inflammation, for example, pain due to arthritis and other inflammatory conditions. FIG. 9 provides a schematic representation of the protocol used to evaluate a TRPV3 inhibitor in the CFA model.\nNaive rats were pretested for sensitivity to a heat stimulus in the Hargreaves apparatus. The next day, 100 μL of complete Freund's adjuvant (CFA) was injected into the plantar surface of the right hindpaw. Two days later, in the morning, the rats were again pretested. In the afternoon, rats were injected with either vehicle control (methylcellulose or PEG-400) or with drug (TRPV3 inhibitor 64, TRPV3 inhibitor 15, TRPV1 inhibitor A-425619, or the non-steroidal anti-inflammatory diclofenac). Drugs or vehicle were injected intraperitoneally, and 45 minutes later rats were tested for hyperalgesia by applying the heat source to the CFA injected and uninjected hindpaw and measuring latency to withdrawal."}, "[3]": {"target": "T2, NaV1.2 (Homo sapiens, UniProt Q99250)", "T2 construct": "expressed in transfected cells", "T2 sequence (Q99250 whole entry)": "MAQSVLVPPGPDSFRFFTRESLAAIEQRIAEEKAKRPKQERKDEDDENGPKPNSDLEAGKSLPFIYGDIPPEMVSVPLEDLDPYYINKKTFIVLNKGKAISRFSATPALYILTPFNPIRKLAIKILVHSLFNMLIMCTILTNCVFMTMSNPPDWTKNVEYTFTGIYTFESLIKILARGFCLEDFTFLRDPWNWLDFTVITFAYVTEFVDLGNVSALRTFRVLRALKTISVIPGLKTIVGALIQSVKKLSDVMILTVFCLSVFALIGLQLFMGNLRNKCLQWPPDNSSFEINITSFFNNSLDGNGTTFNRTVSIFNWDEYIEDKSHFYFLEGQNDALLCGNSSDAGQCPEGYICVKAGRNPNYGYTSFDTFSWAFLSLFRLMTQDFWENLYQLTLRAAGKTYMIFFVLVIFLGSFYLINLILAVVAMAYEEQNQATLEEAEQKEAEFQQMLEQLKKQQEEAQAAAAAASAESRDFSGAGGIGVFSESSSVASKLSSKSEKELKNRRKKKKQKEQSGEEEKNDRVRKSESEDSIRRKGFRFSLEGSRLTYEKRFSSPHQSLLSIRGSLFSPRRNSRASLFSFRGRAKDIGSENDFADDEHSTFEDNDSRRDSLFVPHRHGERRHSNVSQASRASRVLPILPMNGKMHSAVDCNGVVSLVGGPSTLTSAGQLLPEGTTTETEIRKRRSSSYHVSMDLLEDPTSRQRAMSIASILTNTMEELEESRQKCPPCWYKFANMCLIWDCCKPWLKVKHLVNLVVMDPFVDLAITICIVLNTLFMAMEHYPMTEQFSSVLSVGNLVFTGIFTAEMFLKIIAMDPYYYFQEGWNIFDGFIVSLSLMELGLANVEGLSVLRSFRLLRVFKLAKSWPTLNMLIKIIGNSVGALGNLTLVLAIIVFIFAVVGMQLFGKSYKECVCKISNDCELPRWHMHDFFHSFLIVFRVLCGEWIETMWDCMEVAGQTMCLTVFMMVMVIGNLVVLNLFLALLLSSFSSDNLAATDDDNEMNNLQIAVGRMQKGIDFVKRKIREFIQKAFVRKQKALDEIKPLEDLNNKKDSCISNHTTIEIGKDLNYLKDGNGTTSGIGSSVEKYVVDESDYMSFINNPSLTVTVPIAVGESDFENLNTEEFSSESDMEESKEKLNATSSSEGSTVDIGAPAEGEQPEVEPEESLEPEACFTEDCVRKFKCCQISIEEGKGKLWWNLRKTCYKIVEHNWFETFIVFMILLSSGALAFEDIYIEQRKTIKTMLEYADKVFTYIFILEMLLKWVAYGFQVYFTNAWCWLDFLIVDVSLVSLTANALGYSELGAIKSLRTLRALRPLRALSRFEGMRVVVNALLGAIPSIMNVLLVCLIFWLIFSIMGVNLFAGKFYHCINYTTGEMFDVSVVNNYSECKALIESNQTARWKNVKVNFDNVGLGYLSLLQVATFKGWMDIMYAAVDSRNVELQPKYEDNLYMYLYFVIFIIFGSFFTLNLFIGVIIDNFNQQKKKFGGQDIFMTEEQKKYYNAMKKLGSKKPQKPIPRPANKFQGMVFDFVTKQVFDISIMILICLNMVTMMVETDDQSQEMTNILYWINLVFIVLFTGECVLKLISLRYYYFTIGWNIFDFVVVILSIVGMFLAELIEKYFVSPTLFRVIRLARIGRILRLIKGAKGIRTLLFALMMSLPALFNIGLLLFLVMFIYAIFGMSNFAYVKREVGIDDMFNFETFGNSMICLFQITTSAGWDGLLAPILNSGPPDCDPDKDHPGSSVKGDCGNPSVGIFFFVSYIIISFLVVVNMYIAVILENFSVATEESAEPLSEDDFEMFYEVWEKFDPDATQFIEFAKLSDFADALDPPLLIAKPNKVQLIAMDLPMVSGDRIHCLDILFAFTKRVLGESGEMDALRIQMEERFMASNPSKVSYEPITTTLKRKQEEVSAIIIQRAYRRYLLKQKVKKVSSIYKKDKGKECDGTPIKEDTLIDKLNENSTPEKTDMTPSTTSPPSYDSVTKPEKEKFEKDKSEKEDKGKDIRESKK", "experiment": "Selectivity patch clamp, NaV1.2 channel", "format": "cell-based", "settings": "fold selective for TRPV3 over NaV1.2; tested up to 30 μM, IC50 estimated", "source_text": "as §1"}, "[4]": {"experiment": "Plasma levels by HPLC/MS/MS after administration", "format": "in vivo", "settings": "rat", "procedure": "The plasma levels of TRPV3 inhibitor 15 were determined via HPLC/MS/MS following administration to male Sprague-Dawley rats. Rats were administered a single intravenous bolus dose of 1.2 mg/kg, an intraperitoneal dose of a suspension of 30 or 60 mg/kg, an oral dose of a solution of 8.6 mg/kg, or an oral dose of a suspension of 6.9 mg/kg.\nFor intravenous administration, TRPV3 inhibitor 15 solutions were formulated in Solutol at a target concentration of 0.25 mg/mL. The solution was administered as a rapid bolus (approximately 2-3 seconds) via the tail vein of conscious rats or via jugular vein catheter in anesthetized rats. The solution was administered at a dose volume of 4 mL/kg.\nFor intraperitoneal administration, TRPV3 inhibitor 15 was formulated as a uniform suspension in CMC (carboxymethylcellulose) at a target concentration of 5 mg/mL. The suspension was administered at a dose volume of 10 mL/kg.\nFor oral administration, TRPV3 inhibitor 15 was formulated as either a uniform suspension in CMC or as a solution in Solutol. The target concentration was 1 mg/mL. Oral administration was by gavage at a dose volume of 10 mL/kg to conscious, fasted, male Sprague-Dawley rats."}, "[5]": {"target": "T3, TRPV1 (hTRPV1) (Homo sapiens, UniProt Q8NER1)", "T3 construct": "expressed in transfected cells", "T3 sequence (Q8NER1 whole entry)": "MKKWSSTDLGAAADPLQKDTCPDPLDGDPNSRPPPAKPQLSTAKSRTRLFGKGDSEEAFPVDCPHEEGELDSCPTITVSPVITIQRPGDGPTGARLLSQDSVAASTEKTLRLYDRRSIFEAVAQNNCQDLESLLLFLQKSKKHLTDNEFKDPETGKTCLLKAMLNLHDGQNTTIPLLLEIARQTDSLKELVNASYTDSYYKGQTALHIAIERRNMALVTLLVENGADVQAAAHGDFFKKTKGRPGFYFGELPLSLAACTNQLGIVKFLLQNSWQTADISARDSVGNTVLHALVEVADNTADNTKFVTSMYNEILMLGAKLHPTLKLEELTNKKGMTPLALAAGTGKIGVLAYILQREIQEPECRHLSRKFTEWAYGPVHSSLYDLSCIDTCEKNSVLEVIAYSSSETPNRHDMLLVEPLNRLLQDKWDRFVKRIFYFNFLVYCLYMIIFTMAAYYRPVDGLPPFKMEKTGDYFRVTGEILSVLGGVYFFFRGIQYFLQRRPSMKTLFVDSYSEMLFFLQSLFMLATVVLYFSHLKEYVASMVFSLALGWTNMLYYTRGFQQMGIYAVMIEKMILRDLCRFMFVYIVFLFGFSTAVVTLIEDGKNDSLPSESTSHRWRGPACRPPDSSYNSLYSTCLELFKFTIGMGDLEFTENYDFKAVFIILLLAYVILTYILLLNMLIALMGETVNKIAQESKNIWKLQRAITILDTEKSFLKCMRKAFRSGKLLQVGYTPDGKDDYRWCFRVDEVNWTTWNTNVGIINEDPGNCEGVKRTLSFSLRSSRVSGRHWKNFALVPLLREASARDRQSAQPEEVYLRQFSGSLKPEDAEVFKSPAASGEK", "experiment": "Selectivity patch clamp, TRPV1 channel", "format": "cell-based", "settings": "fold selective for TRPV3 over TRPV1; tested up to 30 μM, IC50 estimated", "source_text": "as §1"}, "[6]": {"test_system": "Male Holtzman rats, substance-P induced thermal hyperalgesia", "experiment": "Intrathecal substance-P induced thermal hyperalgesia", "format": "in vivo, rat", "settings": "200 mg/kg IP, 30 minutes prior to substance-P; p<0.05 between groups", "procedure": "The efficacy of a TRPV3 antagonist in diminishing hyperalgesia was assessed in a model of intrathecal administered substance-P induced thermal hyperalgesia. Male Holtzman rats were used in this study and thermal escape was measured using a Hargreaves apparatus. Thermal escape was measured pre-treatment (baseline), and at intervals following intrathecal administration of substance-P (tested at 15, 30, 45, and 60 minutes post substance-P administration). Control animals were administered vehicle intraperitoneally after baseline assessment and 30 minutes prior to substance P administration. Experimental animals receiving a TRPV3 inhibitor (compound 64) were administered compound intraperitoneally after baseline assessment and 30 minutes prior to substance P administration.\nSubstance-P induced rats were surgically prepared with a lumbar intrathecal catheter using clean surgical technique while under inhalation anesthesia (isoflurane). The catheter was externalized at the back of the head to minimize handling of the animal during drug delivery. […]\nBriefly, baseline mean paw latencies were determined prior to substance-P administration. […] After injection of substance P intrathecally via the previously placed catheter (counted as time=0), measurements of escape latency were taken at 15, 30, 45, and 60 minutes post-substance-P administration. […]"}, "[7]": {"test_system": "Male Holtzmann rats, intraplantar formalin", "experiment": "Formalin model following intrathecal delivery", "format": "in vivo, rat", "settings": "10 mg/kg intrathecally", "source_text": "As outlined above, the formalin model involves injection of a formalin solution intradermally or intraperitoneally. Injection of formalin solution invokes a biphasic response, and thus provides a model for both nociceptive and inflammatory pain. The formalin model was used to evaluate the effectiveness of an exemplary TRPV3 inhibitor in the treatment of pain following intrathecal (IT) delivery. Efficacy following intrathecal delivery provides evidence that the compound can act centrally.\nBriefly, the following protocol was followed. Male Holtzmann rats received intraplantar injections of 50 μL of 2% formalin. Paw flinching was detected by an automated sensor detecting movement of a small metal band placed on the injected hind paw. Drug or vehicle was administered intrathecally approximately 15 minutes prior to the injection of formalin. The animal's response to injection of the irritant was measured by counting flinches per minutes during the Early Phase and during the Late Phase.\nFlinches per minute, a measure of the pain and discomfort experienced by the animal, was measured following formalin injection in animals receiving either 10 mg/kg TRPV3 inhibitor (Compound 64) or a vehicle control (0.5% DCC). The TRPV3 inhibitor was formulated in 20% DMSO/20% cremaphore/10% cyclodextrin (DCC) and administered intrathecally. […]"}, "[8]": {"test_system": "Male Holtzman rats, thermal injury", "experiment": "Thermal injury model, thermal escape latency (Hargreaves)", "format": "in vivo, rat", "procedure": "The thermal injury model was used to evaluate the effectiveness of an exemplary TRPV3 inhibitor in the treatment of nociceptive pain. FIG. 1 provides a schematic representation of the protocol used to evaluate a TRPV3 inhibitor in the thermal injury model.\nBriefly, the following protocol was followed. Male Holtzman rats (approximately 300 grams) were tested on thermal escape using a Hargreaves type apparatus. Under light anesthesia, a thermal injury (52° C. for 45 seconds) was applied to one heel. The animals were tested for thermal escape latency of the injured and uninjured paw before and at 30, 60, 80 and 120 minutes after injury. Drug (a TRPV3 inhibitor or morphine) or vehicle (0.5% methylcellulose) was administered after the baseline measurement and approximately 15-20 minutes prior to the thermal injury. In addition to the escape latency measurement, behavioral observations were made throughout the experiment."}, "[9]": {"test_system": "Male Holtzman rats, thermal injury", "settings": "Table B comparators; based on our data as well as data available in the literature; cited from earlier work"}, "[10]": {"test_system": "rats, CFA injected hindpaw", "settings": "Table B comparators; based on our data as well as data available in the literature; cited from earlier work"}, "[11]": {"target": "T1, rat TRPV6 (rTRPV6)", "settings": "(Clapham et al.); cited from earlier work"}, "[12]": {"target": "human ERG (hERG) (Homo sapiens, UniProt Q12809)", "sequence (Q12809 whole entry)": "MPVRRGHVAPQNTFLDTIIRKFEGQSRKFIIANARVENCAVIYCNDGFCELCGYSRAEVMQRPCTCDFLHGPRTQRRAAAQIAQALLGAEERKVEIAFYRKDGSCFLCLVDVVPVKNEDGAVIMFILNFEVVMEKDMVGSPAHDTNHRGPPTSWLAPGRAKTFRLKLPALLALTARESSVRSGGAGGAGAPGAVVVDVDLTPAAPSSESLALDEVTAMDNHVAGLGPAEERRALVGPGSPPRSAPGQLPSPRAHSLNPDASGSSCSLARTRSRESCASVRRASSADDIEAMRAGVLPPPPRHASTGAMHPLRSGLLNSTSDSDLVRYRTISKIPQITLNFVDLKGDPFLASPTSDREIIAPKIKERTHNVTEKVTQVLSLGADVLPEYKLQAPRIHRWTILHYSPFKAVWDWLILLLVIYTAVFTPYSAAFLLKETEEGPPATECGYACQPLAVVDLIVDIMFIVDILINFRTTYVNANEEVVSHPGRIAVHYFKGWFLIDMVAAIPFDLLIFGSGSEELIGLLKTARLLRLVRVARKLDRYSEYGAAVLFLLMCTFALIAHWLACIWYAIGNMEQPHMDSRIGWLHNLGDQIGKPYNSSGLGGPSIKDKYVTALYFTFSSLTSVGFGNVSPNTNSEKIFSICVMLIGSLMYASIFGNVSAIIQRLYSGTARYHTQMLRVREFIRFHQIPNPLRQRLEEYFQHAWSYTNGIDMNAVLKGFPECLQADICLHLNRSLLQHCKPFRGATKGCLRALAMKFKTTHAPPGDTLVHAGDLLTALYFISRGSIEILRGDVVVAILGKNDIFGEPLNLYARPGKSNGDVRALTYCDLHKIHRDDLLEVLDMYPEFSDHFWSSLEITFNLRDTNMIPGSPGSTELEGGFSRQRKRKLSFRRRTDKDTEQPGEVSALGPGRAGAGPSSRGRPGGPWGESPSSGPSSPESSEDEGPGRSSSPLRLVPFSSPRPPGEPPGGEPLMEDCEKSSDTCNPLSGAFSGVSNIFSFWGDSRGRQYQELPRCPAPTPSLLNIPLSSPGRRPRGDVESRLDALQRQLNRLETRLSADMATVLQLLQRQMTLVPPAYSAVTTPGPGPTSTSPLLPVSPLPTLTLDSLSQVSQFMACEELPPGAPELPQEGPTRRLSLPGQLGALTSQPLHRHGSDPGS", "experiment": "Selectivity patch clamp, hERG channel", "settings": "fold selective for TRPV3 over hERG; tested up to 30 μM, IC50 estimated", "method": "Compounds of interest were tested against these channels at concentrations up to 30 μM, and the resulting data were used to estimate IC50. Data is presented as fold selective."}}, "note": "Where two headings read alike, the source gives them in different places.", "data": [{"molecule": "Cc1cccc2c1N(C(=O)CSc1nc3cc(Cl)ccc3s1)CCC2", "note": "[Compound 15, 2-(5-Chlorobenzothiazol-2-ylsulfanyl)-1-(8-methyl-3,4-dihydro-2H-quinolin-1-yl)-ethanone]", "values": [{"measurement": "TRPV3:TRPV6 fold selectivity", "setting": "[1]", "result": ">1000", "unit": "fold"}, {"measurement": "Effect relative to diclofenac / TRPV1 inhibitor", "setting": "[2]", "result": "more potent than the effects of the non-steroidal anti-inflammatory"}, {"measurement": "Thermal hyperalgesia (latency to withdrawal)", "setting": "[2]", "result": "reduced thermal hyperalgesia"}, {"measurement": "TRPV3:NaV1.2 fold selectivity", "setting": "[3]", "result": ">1000", "unit": "fold"}, {"measurement": "bioavailability", "setting": "[4]; male, Sprague-Dawley, fasted rats, oral, solution or suspension, read-out: Estimated bioavailability", "result": "~5", "unit": "%"}, {"measurement": "half-life", "setting": "[4]; male Sprague-Dawley rats, read-out: Estimated half-life (converted)", "result": 1.6, "unit": "h"}, {"measurement": "clearance", "setting": "[4]; male Sprague-Dawley rats, read-out: Estimated plasma clearance", "result": 41, "unit": "mL/min/kg"}, {"measurement": "Vd", "setting": "[4]; male Sprague-Dawley rats, read-out: Estimated volume of distribution", "result": 5.51, "unit": "L/kg"}, {"measurement": "TRPV3:TRPV1 fold selectivity", "setting": "[5]", "result": ">1000", "unit": "fold"}]}, {"molecule": "Cc1cccc2c1N(C(=O)CSc1nc3ccccc3s1)CCC2", "note": "[Compound 46, 2-(Benzothiazol-2-ylsulfanyl)-1-(8-methyl-3,4-dihydro-2H-quinolin-1-yl)-ethanone]", "values": [{"measurement": "TRPV3:TRPV1 fold selectivity", "setting": "[5]", "result": ">200", "unit": "fold"}]}, {"molecule": "O=C(CSc1nc2ccccc2s1)N1CCCc2ccccc21", "note": "[Compound 64, 2-(Benzo[d]thiazol-2-ylthio)-1-(3,4-dihydroquinolin-1(2H)-yl)ethanone]", "values": [{"measurement": "TRPV3:TRPV6 fold selectivity", "setting": "[1]", "result": ">40", "unit": "fold"}, {"measurement": "Effect relative to diclofenac / TRPV1 inhibitor", "setting": "[2]", "result": "more potent than the effects of either the non-steroidal anti-inflammatory or the TRPV1 inhibitor"}, {"measurement": "Pain sensitivity of inflamed paw", "setting": "[2]; individual rats, FIG. 11", "result": "returns pain sensitivity to baseline levels"}, {"measurement": "Thermal hyperalgesia (latency to withdrawal)", "setting": "[2]", "result": "reduced thermal hyperalgesia"}, {"measurement": "Thermal hyperalgesia (mean paw latency)", "setting": "[6]", "result": "reversed the hyperalgesia"}, {"measurement": "Flinches per minute", "setting": "[7]; about 15 minutes prior to formalin, vs vehicle", "result": "substantially reduced the flinches per minute"}, {"measurement": "Flinches per minute, Late Phase", "setting": "[7]; Late Phase", "result": "statistically significant reduction"}, {"measurement": "TRPV3:NaV1.2 fold selectivity", "setting": "[3]", "result": ">40", "unit": "fold"}, {"measurement": "TRPV3:TRPV1 fold selectivity", "setting": "[5]", "result": ">40", "unit": "fold"}, {"measurement": "Escape latency in the injured paw", "setting": "[8]; 200 mg/kg", "result": "comparable to that observed prior to injury"}, {"measurement": "Escape latency in the uninjured paw", "setting": "[8]; even at the highest concentrations administered (FIG. 3)", "result": "no effect on the uninjured paw"}, {"measurement": "Escape latency in the injured paw", "setting": "[8]; increasing concentrations of inhibitor vs methylcellulose control (FIG. 2)", "result": "significantly diminished pain"}]}, {"molecule": "NCC1(CC(=O)O)CCCCC1", "note": "[Gabapentin]", "values": [{"measurement": "Acute thermal injury", "setting": "[9]", "result": "Effective"}, {"measurement": "CFA Model", "setting": "[10]", "result": "Ineffective"}]}, {"molecule": "N.N.N.N.N.N.N.N.N.N.N.N.N.N.[Cl-].[Cl-].[Cl-].[Cl-].[Cl-].[Cl-].[O-2].[O-2].[Ru+3].[Ru+3].[Ru+4]", "note": "[Ruthenium Red]", "values": [{"measurement": "TRPV3:TRPV6 fold selectivity", "setting": "[11]", "result": 10, "unit": "fold"}, {"measurement": "TRPV3:hERG fold selectivity", "setting": "[12]", "result": ">40", "unit": "fold"}, {"measurement": "TRPV3:TRPV1 fold selectivity", "setting": "[5]", "result": 3, "unit": "fold selective"}]}]}
